Results taken from patent US20110092488A1, “Quninoline Methanol Compounds for the Treatment and Prevention of Parasitic Infections” (priority 2005, published 2011).
“Also recorded” adds a separate entry of the source.

How the values were obtained:
P. falciparum TM91C235 = experiment: In vitro antimalarial activity against P. falciparum TM91C235; type: cell-based, Plasmodium falciparum; settings: for TM91C235 IC90: Table 2
Protocol: The in vitro activities of AAQMs against P. falciparum strains W2, D6, TM91C235 and TM90C2A were evaluated using the method of Desjardins et al. as modified by Milhous et al. W2 is chloroquine resistant and mefloquine sensitive, D6 is chloroquine sensitive but naturally less susceptible to mefloquine, TM91C235 is resistant to mefloquine, chloroquine and pyrimethamine as is TM90C2A, however this latter parasite is a two pfmdr1 copy strain. We routinely run mefloquine in this screen as a control to ensure assay validity.

[1] = test system: primary rat forebrain neurons; experiment: Neurocytotoxicity assay (MTT); settings: for IC50: read-out: Neurotoxicity ranking (IC50 in μM), approximate IC50 from screen at 10, 100 and 1000 μM, MTT
Protocol: The neurocytotoxicity assay of AAQMs was conducted as per Dow et al.; The antimalarial potential of 4-quinolinecarbinolamines may be limited due to neurotoxicity and cross-resistance in mefloquine-resistant Plasmodium falciparum strains; Chemother. (48) 2624-2632 (2004) and is incorporated herein, by reference. This assay utilizes primary rat forebrain neurons and is a multi-endpoint screen. […] The AAQMs outlined in Table 1 were screened at 10, 100 and 1000 μM in triplicate, and the reduction in viability observed was determined using the 3-(4,5-dimethylthiazol-2-yl)-2,5-diphenyltetrazolium bromide (MTT) assay as per Dow et al., discussed above. Approximate IC50 values were calculated on the basis of the level of inhibition observed at each concentration. Full dose response assays were run for mefloquine and WR069878 with two fold dilutions (n=6 wells per dilution) and 11 dilutions for each drug. IC50s were calculated using Prism. Each time the assay is conducted, 20 μM mefloquine is included, as a control. […] Assays are re-run if the loss of viability induced by mefloquine is <40% or >60%. Neuroprotection experiments with 6,7-dinitroquinoxaline-2,3-dione (DNQX) and magnesium were performed as per Dow et al.; Transcriptional profiling of mefloquine-induced disruption of calcium homeostasis in neurons in vitro; Genomics (86)539-550 (2005), which is incorporated by reference, herein. Neurons were exposed to DNQX (100 μM) or magnesium (12 mM) for 5 min, followed by mefloquine (25 μM) or WR069878 (250 μM) for 20 min after which reduction in cell viability was determined. […] DNQX is an inhibitor of non-N-methyl-D-aspartate (NMDA) receptors, whilst magnesium inhibits the functioning of the inositol 1,4,5-trisphosphate (IP3)-mediated calcium signaling pathway at several points. The effects of mefloquine and WR069878 on neuronal calcium homeostasis were assessed utilizing confocal microscopy as per Dow et al, as discussed in Antimicrob Agents Chemother. (48)2624-2632 (2004), cited above, and incorporated by reference, herein. Briefly neurons were loaded with calcium sensitive dye Fluo 3-A for 1 h and were washed prior to image experiments. Neurons were ‘spiked’ with 100 μM mefloquine or WR069878. Subsequent changes in neuronal calcium homeostasis were recorded as fluctuations in the emitted fluorescence of fluo-3-complexed calcium at 530 nm (excitation was 488 nm). Sequential image scans of fields containing 5-25 neurons were used to construct temporal profiles. Scans were made at 10 s intervals. Fluorescence levels for each neuron were normalized 12 to time zero values. Data were then pooled from three and five independent experiments for mefloquine and WR069878 respectively.

[2] = test system: FVO strain of P. falciparum; experiment: Efficacy in P. falciparum-challenged Aotus monkeys; type: in vivo, Plasmodium falciparum in Aotus lemurinus lemurinus; settings: 10 mg/kg/day x7 oral; groups of two; Cure = parasite free 90 days; R = average day of recrudescence; Failure = rescued with mefloquine
Protocol: (§1) The P. berghei-mouse efficacy data were obtained from the WRAIR chemical information system (subcutaneous testing) or from recent tests conducted at AFRIMS, Thailand or at the University of Miami using a modified version of the Thompson test. Groups of five mice were inoculated through i.p. injection on day 0 (usually with 1×106 P. berghei-parasitized erythrocytes). The drugs in Table 1 were administered either subcutaneously or orally for three days (usually on days 3-5) at doses of 1.25-160 mg/kg in two to four fold increments. Cure was defined as survival until day 60 (subcutaneous dosing) or day 31 post-treatment (oral dosing). […] The minimum effective dose was the lowest dose level that cured at least one of five mice. The Aotus studies were performed according to Obaldia; Detection of Klebsiella pnuumoniae antibodies in Aotus l. lemurinus (Panamanian owl monkey) using an enzyme linked immunosorbent assay (ELIA) test; Lab Anim (25)133-141 (1991) and Obaldia et al., WR 238605, chloroquine, and their combinations as blood schizonticides against a chloroquine-resistant strain of Plasmodium vivax in Aotus monkeys; Am. J. Trop. Med. Hyg. (56)508-510 (1997), which are incorporated by reference, herein. Groups of two Aotus lemurinus 6 lemurinus of the karyotype VIII or IX (27) male and female monkeys with weights ranging from 742-970 g were inoculated with 5×10^6 parasites of either the FVO strain of P. falciparum or the AMRU1 strain of P. vivax. Both of these strains are chloroquine resistant. […] Monkeys were examined and thick Giemsa-stained blood smears were prepared and enumerated daily (17) to monitor the course of infection. […] In some instances, a high dose of the test drug was used to retreat monkeys instead of the mefloquine rescue. Monkeys are considered cured if they are parasite free 90 days post treatment. […] Plasma samples were taken from the monkeys in some studies for quantification of metabolites. Additional blood samples were taken as appropriate for complete blood counts and serum chemistry. Research was conducted in compliance with the Animal Welfare Act and other federal statutes and regulations relating to animals and experiments involving animals and adheres to principles stated in the Guide for the Care and Use of Laboratory Animals, NRC Publication, 1996 edition (34).

[3] = Aotus, 10 mg/kg/day oral x7; for Plasma conc on day 1 (ng/ml) 2 h: day 1, 2 h; for Plasma conc on day 1 (ng/ml) 24 h: day 1, 24 h; for Plasma conc. on day 7 (ng/ml) 2 h: day 7, 2 h; for Plasma conc. on day 7 (ng/ml) 24 h: day 7, 24 h
Protocol: as §1

[4] = Protocol: The AAQMs indicated in Table 1 (10 μM) were added to a mixture containing an NADPH-regenerating buffer (1.25 mM β-NADP+, 3.3 mM glucose-6-phosphate, and 3.3 mM MgCl2) and 0.5 mg/ml pooled human liver microsomes to a final volume of 125 μl. The mixtures were incubated for 5 minutes at 37° C. and the reactions were initiated by adding 25 μl glucose-6-phosphate dehydrogenase to a final concentration of 1 unit/ml. The reactions were maintained at 37° C. until they were terminated by the addition of an equal volume of 100% ice cold acetonitrile at 0, 10, 30, 60, and 120 minutes. Samples were centrifuged to pellet the proteins and the supernatant was analyzed by LC-MS/MS in duplicate using fast LC gradient or isocratic methods. AAQM concentrations were quantified with external calibration, using plots of response v. amount. Chromatograms were analyzed using the mass spectrometry software Xcalibur® QuanBrowser (for ThermoFinnigan® instruments) or MassLynx® (for Waters® instruments). Concentrations of AAQMs remaining at each time point were calculated using the unknown peak areas and corresponding calibration curves. In order to calculate the half-life, a first-order rate of decay was assumed. […] All reagents were purchased from Sigma except for the microsomes, which were obtained from BD Gentest®. For metabolite identification, samples were prepared as described above with human liver microsomes. Additional samples were prepared with for each AAQM using mouse, rat, and rhesus monkey liver microsomes. Samples were separated using an LC gradient method and analyzed by full scan LC-MS and LC-MS/MS. […] These MS/MS data were also used to do preliminary structural elucidation. […] The relative percentage of formation of each metabolite was determined in a semi-quantitative manner since standards of each metabolite were not available. Peak areas of each detected AAQM metabolite and the internal standard were determined, and their ratios were calculated as metabolite area/internal standard area. The percent formation of each metabolite was determined as the area ratio divided by the sum of all the metabolite area ratios.

CCCC[N+]([O-])(CCCC)CC(O)c1cc(-c2ccc(Cl)cc2)nc2c(Cl)cc(Cl)cc12 (stereo not shown) [WR098656]
Activity against P. falciparum TM91C235 (IC50 in ng/ml) (P. falciparum TM91C235): 3.3 ng/mL | IC50 [1]: 60 µM

CCCCN(CCCC)CC(O)c1cc(-c2ccc(Cl)cc2)nc2cc(F)ccc12 (stereo not shown) [WR081049]
Activity against P. falciparum TM91C235 (IC50 in ng/ml) (P. falciparum TM91C235): 1.6 ng/mL | IC50 [1]: 200 µM

CCCCN(CCCC)CC(O)c1cc(-c2ccc(Cl)cc2)nc2ccc(Cl)cc12 (stereo not shown) [WR035058]
Activity against P. falciparum TM91C235 (IC50 in ng/ml) (P. falciparum TM91C235): 2.7 ng/mL | TM91C235 IC90 (P. falciparum TM91C235): 8.5 ng/mL | IC50 [1]: 600 µM | Outcome in Aotus [2]: Cures and Cure | Mean peak concentration [3]: 413 ng/mL | Plasma conc on day 1 (ng/ml) 2 h [3]: 454 ng/mL | Plasma conc on day 1 (ng/ml) 24 h [3]: 84 ng/mL | Plasma conc. on day 7 (ng/ml) 2 h [3]: 371 ng/mL | Plasma conc. on day 7 (ng/ml) 24 h [3]: 105 ng/mL

CCCCN(CCCC)CC(O)c1cc(-c2ccc(I)cc2)nc2c(Cl)cc(Cl)cc12 (stereo not shown) [WR106752]
Activity against P. falciparum TM91C235 (IC50 in ng/ml) (P. falciparum TM91C235): 8.0 ng/mL

CCN(CC)CC(O)c1cc(-c2ccc(Cl)cc2)nc2c(Cl)cc(Cl)cc12 (stereo not shown) [WR041294]
Activity against P. falciparum TM91C235 (IC50 in ng/ml) (P. falciparum TM91C235): 1.1 ng/mL | IC50 [1]: 60 µM | Route of metabolic transformation [4]: N-dealkylation

CCCCN(CCCC)CC(O)c1cc(-c2ccc(Cl)cc2)nc2c(C)cccc12 (stereo not shown) [WR211925]
Activity against P. falciparum TM91C235 (IC50 in ng/ml) (P. falciparum TM91C235): 5.2 ng/mL | IC50 [1]: 600 µM

CCCCN(CCCC)CC(O)c1cc(-c2ccc(Cl)cc2)nc2c(Cl)cc(Cl)cc12 (stereo not shown) [WR029252]
Activity against P. falciparum TM91C235 (IC50 in ng/ml) (P. falciparum TM91C235): 7.6 ng/mL | TM91C235 IC90 (P. falciparum TM91C235): 20 ng/mL | IC50 [1]: 600 µM | Outcome in Aotus [2]: Failure | Mean peak concentration [3]: 44 ng/mL | Plasma conc on day 1 (ng/ml) 2 h [3]: 67 ng/mL | Plasma conc on day 1 (ng/ml) 24 h [3]: 1.0 ng/mL | Plasma conc. on day 7 (ng/ml) 2 h [3]: 21 ng/mL | Plasma conc. on day 7 (ng/ml) 24 h [3]: 1.0 ng/mL

CCCCCCN(CCCCCC)CC(O)c1cc(-c2ccccc2)nc2c(Cl)cccc12 (stereo not shown) [WR211679]
Activity against P. falciparum TM91C235 (IC50 in ng/ml) (P. falciparum TM91C235): 7.7 ng/mL

O=C(O)c1cc(C(F)(F)F)nc2c(C(F)(F)F)cccc12 [Mefloquine metabolite, reference compound]
Killing of neurons ([1]; at 1000 microM, FIG. 1): only partial killing

CCCCNCC(O)c1cc(-c2ccc(Cl)cc2)nc2c(C)cc(C)cc12 (stereo not shown) [WR176399]
Activity against P. falciparum TM91C235 (IC50 in ng/ml) (P. falciparum TM91C235): 0.48 ng/mL | TM91C235 IC90 (P. falciparum TM91C235): <0.5 ng/mL | IC50 [1]: 600 µM | Route of metabolic transformation [4]: hydroxylation | Outcome in Aotus [2]: cleared parasitemias, but recrudescence was subsequently observed; also recorded: Clear (R21) | Mean peak concentration [3]: 28 ng/mL | Plasma conc on day 1 (ng/ml) 2 h [3]: 27 ng/mL | Plasma conc on day 1 (ng/ml) 24 h [3]: 2.7 ng/mL | Plasma conc. on day 7 (ng/ml) 2 h [3]: 30 ng/mL | Plasma conc. on day 7 (ng/ml) 24 h [3]: 3.8 ng/mL

CCCCNCC(O)c1cc(-c2ccc(Cl)cc2)nc2c(Cl)cc(Cl)cc12 (stereo not shown) [WR007524]
Activity against P. falciparum TM91C235 (IC50 in ng/ml) (P. falciparum TM91C235): 0.63 ng/mL | IC50 [1]: 60 µM | Route of metabolic transformation [4]: not at all
